Data as given in patent publication US11903916B2, “Methods of using probenecid for treatment of coronavirus infections” (University of Georgia Research Foundation, Inc., priority 2020, dated 2024).
Read-outs that look alike come from different tables or passages of the source.

Assays:
[1] = test system: SARS-CoV-2; format: cell-based; conditions: for reduction in plaque formation compared to DMSO treated infected control: 24 h pre-treatment, Vero E6, MOI 0.01, 4 days
[2] = test system: SARS-CoV-2; format: cell-based; conditions: for reduction in plaque formation compared to DMSO treated infected control: post-treatment after 1 hour infection, Vero E6, MOI 0.01, 4 days, FIG. 3

## CCCN(CCC)S(=O)(=O)c1ccc(C(=O)O)cc1 [Probenecid, 4-[(dipropylamino)sulfony1] benzoic acid]
[1]; 24 hour pretreatment at the concentrations tested
  viral titer/plaque formation: significantly reduces viral titer/plaque formation
[1]; probenecid 0.0001 μM, another experiment, FIG. 2
  reduction in plaque formation compared to DMSO treated infected control: ~50%
[1]; probenecid 0.1 μM, FIG. 1
  reduction in plaque formation compared to DMSO treated infected control: ~72%
[2]; post-treatment at the concentrations tested
  viral titer/plaque formation: significantly reduces viral titer/plaque formation
[2]; probenecid 0.0001 μM
  reduction in plaque formation compared to DMSO treated infected control: ~40%
[2]; probenecid 5 μM
  reduction in plaque formation compared to DMSO treated infected control: ~90%
